Values quoted from earlier work, collected in patent US9167842B2, “Functional food preparation and use thereof” (priority 2010, dated 2015).
Where two headings read alike, the source gives them in different places.

What was measured:
[1] = daily folic acid supplement
[2] = oral, 32 hypercholesterolemic patients, three months

Structure (SMILES) | reduction of homocysteine [1] | reduction of homocysteine ([1]; dose doubled) | reduction of LDL cholesterol [2] [%] | reduction of plasma cholesterol [2] [%] | reduction of triglycerides [2] [%]
Nc1nc2ncc(CNc3ccc(C(=O)N[C@@H](CCC(=O)O)C(=O)O)cc3)nc2c(=O)[nH]1 [folic acid] | about 60% | about 90% |  |  | 
COc1ccc2cc3[n+](cc2c1OC)CCc1cc2c(cc1-3)OCO2 [berberine] |  |  | 25 | 29 | 35
